Experimental data taken from patent publication US20220144823A1, “PYRAZOLOPYRIDINE DERIVATIVES AS INHIBITORS OF PASK” (Galapagos NV, priority 2019, published 2022).

How the values were obtained:
human PASK [1] = molecular target: T1, human PASK (Homo sapiens, UniProt Q96RG2); test: ADP-Glo kinase assay; assay type: biochemical; details: ADPGlo PASK kinase assay, 25 μM ATP, ZIPtide 25 μM
T1 construct: purchased ThermoFisher Scientific PR7013A
Procedure, shortened: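 Human recombinant PASK phosphorylating ZIPtide peptide with ATP, 120 min at RT; compounds in 10-point 1/5 dilution series, 1% DMSO final. ADP formed measured by ADP-Glo luminescence after ATP depletion; percent inhibition fitted to dose-response curves for averaged IC50.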

[2] = molecular target: T2, autophosphorylation of PASK at position Thr307 in Hek293 cells overexpressing PASK (Homo sapiens, UniProt Q96RG2); test: PASK autophosphorylation ELISA assay; assay type: cell-based; details: 24 h, ELISA readout
T2 construct: expressed in transfected cells; host or cells: Hek293
Protocol: The compounds of the invention are profiled in a cellular assay to determine their capacity to reduce the autophosphorylation levels of PASK at position Thr307 in Hek293 cells overexpressing PASK, using an ELISA-based readout.
At day 1, a 96-well cell assay plate is coated with poly-D-lysine (50 μL/well of a 0.05 mg/mL solution in PBS) and incubated for 1 h at 37° C. The plate is subsequently washed once with PBS and stored dry at RT until further use. Hek293 cells are transfected with a pcDNA3.1-PASK(FL,WT)-FLAG construct (SEQ ID1) and seeded in culture medium (DMEM+10% FBS) in a poly-D-lysine coated 96-well plate (0.3 μL JetPEI DNA transfection reagent (Polyplus-transfection SA, Cat #101-40), 10 ng construct and 90 ng pBluescript, 60000 cells per well). […] The cell plate is incubated overnight at 37° C., 5% CO2.
At day 2, the medium of the assay plate is removed and 100 μL of fresh medium (DMEM+10% FBS) is added to the plate. Cell plate is further incubated overnight at 37° C., 5% CO2. This to allow further expression of PASK protein.
At day 3, the medium is removed and replaced with 100 μL of serum free medium (DMEM). Test compound is added to the plate (8 points concentration curve with 1/3 dilution steps starting from 30 μM final concentration in 0.3% DMSO final). In the positive and negative control wells of the plate, 0.3% DMSO final is added. For each tested condition, duplicates are made for ELISA readout. Cell plate is incubated 24 h at 37° C., 5% CO2.
At day 4, the medium is removed and the plate is washed once with 100 μL/well PBS. Cells are lysed by adding 50 μL/well western blot lysis buffer (20 mM Tris pH 7.5, 150 mM NaCl and 1% Triton) to the plate. The assay plate is stored at −80° C. and thawed to perform the ELISA readout.
At day 1, the ELISA plate is coated with the mouse anti-FLAG antibody (2 μg/mL diluted in PBS, 100 μL/well) and incubated overnight at 4° C.
At day 2, the plate is washed once with 150 μL/well PBS. 200 μL/well blocking buffer (PBS with 3% BSA) is added and the plate is incubated for 4 h at RT. The plate is washed with 150 μL/well high salt washing buffer (20 mM Na2HPO4, 0.5% Triton X-100, 0.1% SDS, 0.1% BSA and 1 M NaCl) followed by one wash with 150 μL/well low salt washing buffer (20 mM Na2HPO4, 0.5% Triton X-100, 0.1% SDS, 0.1% BSA and 150 mM NaCl). Meanwhile, the cell lysate plate is thawed, two wells of the same condition are pooled (2×50 μL) and added to the ELISA plate. The ELISA plate is incubated overnight at 4° C.
At day 3, the ELISA plate is washed twice with 150 μL/well high salt washing buffer followed by two washes with low salt washing buffer. 100 μL/well detection antibody for pPASK (phospho-Akt substrate (RXXS*/T*) (110B7E) rabbit antibody (Cell Signaling Technology, Inc., Cat #9614) 2 μg/mL diluted in PBS with 3% BSA and 1×Halt™ protease and phosphatase inhibitor cocktail (Thermo Fisher Scientific, Inc., Cat #78447)) is added and incubated for 2 h at RT. The plate is washed twice with high and low salt wash buffer (150 μL/well) and 100 μL/well of an HRP antibody (swine anti-rabbit HRP antibody (Agilent Technologies, Inc., Cat #P039901) diluted 1/2000 in PBS with 3% BSA and 1×Halt™ protease and phosphatase inhibitor cocktail) is added to the plate, followed by an incubation for 1 h at RT in the dark (plate sealed with aluminum seal). The plate is washed twice with high and low salt wash buffer (150 μL/well) and 100 μL/well of SuperSignal™ ELISA Pico Chemiluminescent Substrate (Thermo Fisher Scientific, Inc., Cat #37070)(premix part 1 and part 2, 1/1) is added. The plate is incubated for 4 min at RT before measuring luminescence on the Luminoskan™ Ascent (Thermo Fisher Scientific, Inc.) (PMT default voltage; 100 ms integration time). […]

human PASK [3] = molecular target: T1, human PASK; test: 33P radioactive kinase assay; assay type: biochemical; details: 33P radioactive PASK kinase assay, 10 μM ATP, ZIPtide 1 μM
Protocol: The principle of the ^33P radioactive kinase assay consists in measuring the incorporated ^33P into the ZIPtide peptide substrate when phosphorylated by human PASK using [^33P]-[…]-ATP and ATP, which correlates with kinase activity.
The test compounds are prepared as a serial dilution of 10 point dose responses with 1/5 dilution steps in 100% DMSO starting from 0.2 or 2 mM highest concentration, diluted 1/20 in water and 5 μL is transferred to the assay plates (Greiner, Cat #651201).
1% DMSO and 10 μM staurosporine final concentrations are used respectively as negative and positive controls.
11 μL of enzyme-substrate mixture is added on the assay plates. The reactions are started by adding 9 μL ATP mixture, consisting of non-labeled and ^33P-labeled ATP, on the assay plates.
The reactions are stopped by adding 25 μL phosphoric acid (150 mM) to the reactions.
The completely terminated kinase reactions are transferred using a harvester on pre-wetted UniFilter-96 plates (UniFilter-96 GF/B, PerkinElmer Inc., Cat #6005177).
After harvesting the kinase reactions, the filter plates are washed 6 times with phosphoric acid (75 mM). The back of the UniFilter-96 plates are sealed and 40 μL MicroScint-20 (PerkinElmer Inc., Cat #6013621) is added to each well. The top of each plate is sealed with TopSeal-A (PerkinElmer Inc., Cat #6050185). Read-out is performed with a TopCount instrument (PerkinElmer Inc.).
Raw data are generated following the read-out performed on the TopCount, used to calculate percentage inhibition (PIN) values and plotted to generate dose response curves and derive the average half maximal inhibitory concentrations (IC50) reported in Table VI.

T1 sequence (Q96RG2 whole entry): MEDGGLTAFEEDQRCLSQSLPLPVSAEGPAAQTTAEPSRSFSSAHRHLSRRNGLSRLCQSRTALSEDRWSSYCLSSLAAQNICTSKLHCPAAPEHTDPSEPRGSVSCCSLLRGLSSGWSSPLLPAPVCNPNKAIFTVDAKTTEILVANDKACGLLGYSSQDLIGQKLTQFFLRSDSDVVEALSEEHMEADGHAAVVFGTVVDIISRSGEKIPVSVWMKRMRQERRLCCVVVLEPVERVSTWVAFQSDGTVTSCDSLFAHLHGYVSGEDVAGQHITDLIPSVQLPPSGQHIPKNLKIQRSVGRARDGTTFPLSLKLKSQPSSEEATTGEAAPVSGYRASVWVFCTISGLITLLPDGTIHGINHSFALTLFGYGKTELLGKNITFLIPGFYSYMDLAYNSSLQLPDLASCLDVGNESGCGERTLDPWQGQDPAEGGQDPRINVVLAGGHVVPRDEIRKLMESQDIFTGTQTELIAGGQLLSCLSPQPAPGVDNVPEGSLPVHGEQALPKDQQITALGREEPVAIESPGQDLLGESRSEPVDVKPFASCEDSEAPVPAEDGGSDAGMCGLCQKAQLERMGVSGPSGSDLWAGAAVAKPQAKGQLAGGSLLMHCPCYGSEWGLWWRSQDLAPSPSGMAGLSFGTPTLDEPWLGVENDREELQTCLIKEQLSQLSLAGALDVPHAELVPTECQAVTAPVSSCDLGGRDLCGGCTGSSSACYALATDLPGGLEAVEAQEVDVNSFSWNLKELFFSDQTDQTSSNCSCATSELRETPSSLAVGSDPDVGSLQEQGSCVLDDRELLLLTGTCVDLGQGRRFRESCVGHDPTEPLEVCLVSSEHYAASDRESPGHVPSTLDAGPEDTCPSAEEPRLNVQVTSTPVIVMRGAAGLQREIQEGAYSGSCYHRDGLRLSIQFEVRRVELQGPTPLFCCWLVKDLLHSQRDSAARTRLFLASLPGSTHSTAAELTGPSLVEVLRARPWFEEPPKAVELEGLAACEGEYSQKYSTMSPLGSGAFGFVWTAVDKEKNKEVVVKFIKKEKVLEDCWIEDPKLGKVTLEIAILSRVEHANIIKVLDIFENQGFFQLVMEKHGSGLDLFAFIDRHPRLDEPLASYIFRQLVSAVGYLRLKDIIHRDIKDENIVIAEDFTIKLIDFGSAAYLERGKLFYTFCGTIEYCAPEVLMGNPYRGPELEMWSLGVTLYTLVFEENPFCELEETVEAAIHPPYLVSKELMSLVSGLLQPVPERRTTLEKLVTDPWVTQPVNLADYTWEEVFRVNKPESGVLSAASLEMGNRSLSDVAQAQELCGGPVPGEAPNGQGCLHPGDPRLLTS
T2 sequence (Q96RG2 with tags, fused parts or gaps): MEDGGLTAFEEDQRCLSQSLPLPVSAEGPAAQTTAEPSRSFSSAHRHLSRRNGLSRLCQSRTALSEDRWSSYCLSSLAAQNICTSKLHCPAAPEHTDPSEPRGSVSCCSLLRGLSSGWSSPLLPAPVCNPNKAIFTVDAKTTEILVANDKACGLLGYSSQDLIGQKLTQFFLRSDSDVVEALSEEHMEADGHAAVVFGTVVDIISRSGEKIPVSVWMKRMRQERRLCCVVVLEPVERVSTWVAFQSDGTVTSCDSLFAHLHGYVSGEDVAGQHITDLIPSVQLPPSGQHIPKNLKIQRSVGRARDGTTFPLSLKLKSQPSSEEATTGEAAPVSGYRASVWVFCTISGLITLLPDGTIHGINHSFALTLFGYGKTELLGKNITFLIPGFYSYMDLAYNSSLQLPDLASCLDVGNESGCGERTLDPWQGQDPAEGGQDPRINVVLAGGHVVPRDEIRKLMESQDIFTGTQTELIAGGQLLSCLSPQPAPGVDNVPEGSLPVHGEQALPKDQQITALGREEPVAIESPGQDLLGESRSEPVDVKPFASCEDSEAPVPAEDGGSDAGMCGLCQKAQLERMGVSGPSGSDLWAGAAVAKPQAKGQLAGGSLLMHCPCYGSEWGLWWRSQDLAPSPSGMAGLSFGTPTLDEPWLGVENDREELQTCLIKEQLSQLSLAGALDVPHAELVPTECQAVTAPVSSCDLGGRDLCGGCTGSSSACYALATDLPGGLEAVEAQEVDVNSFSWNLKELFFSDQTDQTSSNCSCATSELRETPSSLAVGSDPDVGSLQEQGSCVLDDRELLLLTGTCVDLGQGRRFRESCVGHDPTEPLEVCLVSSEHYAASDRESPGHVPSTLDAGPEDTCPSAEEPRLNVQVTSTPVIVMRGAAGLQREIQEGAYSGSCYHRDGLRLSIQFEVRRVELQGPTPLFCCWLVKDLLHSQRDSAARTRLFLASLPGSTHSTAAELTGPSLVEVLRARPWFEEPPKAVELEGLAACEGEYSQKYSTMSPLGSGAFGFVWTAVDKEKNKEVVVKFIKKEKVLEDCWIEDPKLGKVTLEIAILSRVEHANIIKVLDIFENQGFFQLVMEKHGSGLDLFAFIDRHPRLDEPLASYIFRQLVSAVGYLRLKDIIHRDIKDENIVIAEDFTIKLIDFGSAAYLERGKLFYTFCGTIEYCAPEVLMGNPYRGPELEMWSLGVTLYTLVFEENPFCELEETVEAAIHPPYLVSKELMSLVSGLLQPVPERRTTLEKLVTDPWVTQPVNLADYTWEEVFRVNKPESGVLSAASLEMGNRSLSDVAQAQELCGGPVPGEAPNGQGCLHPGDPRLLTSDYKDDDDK

| IC50 (human PASK [1]) [nM] | IC50 [2] [nM] | IC50 (human PASK [3]) [nM] | Structure (SMILES) |
| --- | --- | --- | --- |
| 0.01 to 10 | 500 to 1000 | 0.01 to 10 | CCOc1nc(-c2ccn3ncc(-c4c(C)nn(C)c4C)c3c2)sc1C(=O)O [Cpd 9, 4-ethoxy-2-[3-(1,3,5-trimethylpyrazol-4-yl)pyrazolo[1,5-a]pyridin-5-yl]thiazole-5-carboxylic acid] |
| 0.01 to 10 | 0.1 to 500 |  | CCOc1nc(-c2ccn3ncc(-c4c(C)nn(CC)c4C)c3c2)sc1C(=O)O [Cpd 64, 4-ethoxy-2-[3-(1-ethyl-3,5-dimethyl-pyrazol-4-yl)pyrazolo[1,5-a]pyridin-5-yl]thiazole-5-carboxylic acid] |
| 0.01 to 10 | > 5000 |  | COc1nc(-c2ccn3ncc(-c4c(C)nn(C(F)F)c4C)c3c2)sc1C(=O)O [Cpd 79, 2-[3-[1-(difluoromethyl)-3,5-dimethyl-pyrazol-4-yl]pyrazolo[1,5-a]pyridin-5-yl]-4-methoxy-thiazole-5-carboxylic acid] |
| 0.01 to 10 | 0.1 to 500 |  | CCOc1nc(-c2ccn3ncc(-c4c(C)nn(CC(F)(F)F)c4C)c3c2)sc1C(=O)O [Cpd 70, 2-[3-[3,5-dimethyl-1-(2,2,2-trifluoroethyl)pyrazol-4-yl]pyrazolo[1,5-a]pyridin-5-yl]-4-ethoxy-thiazole-5-carboxylic acid] |
| 0.01 to 10 | 1000 to 5000 |  | CCOc1nc(-c2ccn3ncc(-c4c(C)nn(C(F)F)c4C)c3c2)sc1C(=O)O [Cpd 72, 2-[3-[1-(difluoromethyl)-3,5-dimethyl-pyrazol-4-yl]pyrazolo[1,5-a]pyridin-5-yl]-4-ethoxy-thiazole-5-carboxylic acid] |
| 0.01 to 10 | 0.1 to 500 |  | CCOc1nc(-c2ccn3ncc(-c4c(C)nn(C(C)C)c4C)c3c2)sc1C(=O)O [Cpd 65, 4-ethoxy-2-[3-(1-isopropyl-3,5-dimethyl-pyrazol-4-yl)pyrazolo[1,5-a]pyridin-5-yl]thiazole-5-carboxylic acid] |

Second part, the compound before the results:

| Structure (SMILES) | IC50 (human PASK [1]) [nM] | IC50 [2] [nM] | IC50 (human PASK [3]) [nM] |
| --- | --- | --- | --- |
| CCn1nc(C)c(-c2cnn3ccc(-c4nc(C5CC5)c(C(=O)O)s4)cc23)c1C [Cpd 38, 4-cyclopropyl-2-[3-(1-ethyl-3,5-dimethyl-pyrazol-4-yl)pyrazolo[1,5-a]pyridin-5-yl]thiazole-5-carboxylic acid] | 0.01 to 10 | 0.1 to 500 | 0.01 to 10 |
| Cc1noc(C)c1-c1cnn2ccc(-c3cc(C(=O)O)c(C4CC4)o3)cc12 [Cpd 32, 2-cyclopropyl-5-[3-(3,5-dimethylisoxazol-4-yl)pyrazolo[1,5-a]pyridin-5-yl]furan-3-carboxylic acid] | 0.01 to 10 | 1000 to 5000 | 0.01 to 10 |
| Cc1c(-c2cnn3ccc(-c4cc(C(=O)O)co4)cc23)c(C(F)(F)F)nn1C [Cpd 23, 5-[3-[1,5-dimethyl-3-(trifluoromethyl)pyrazol-4-yl]pyrazolo[1,5-a]pyridin-5-yl]furan-3-carboxylic acid] |  | 0.1 to 500 | 0.01 to 10 |
| Cc1nn(CC(F)(F)F)c(C)c1-c1cnn2ccc(-c3nc(C4CC4)c(C(=O)O)s3)cc12 [Cpd 42, 4-cyclopropyl-2-[3-[3,5-dimethyl-1-(2,2,2-trifluoroethyl)pyrazol-4-yl]pyrazolo[1,5-a]pyridin-5-yl]thiazole-5-carboxylic acid] | 0.01 to 10 | 0.1 to 500 | 0.01 to 10 |
| Cc1nn(C)c(C)c1-c1cnn2ccc(-c3cc(C(=O)O)co3)cc12 [Cpd 2, 5-[3-(1,3,5-trimethylpyrazol-4-yl)pyrazolo[1,5-a]pyridin-5-yl]furan-3-carboxylic acid] | 0.01 to 10 | 500 to 1000 | 0.01 to 10 |
| CCn1nc(C)c(-c2cnn3ccc(-n4cc(C(N)=O)c(OC)n4)cc23)c1C [Cpd 82, 1-[3-(1-ethyl-3,5-dimethyl-pyrazol-4-yl)pyrazolo[1,5-a]pyridin-5-yl]-3-methoxy-pyrazole-4-carboxamide] | 0.01 to 10 | > 5000 |  |
| Cc1nn(C)c(C)c1-c1cnn2ccc(-c3cc(C(N)=O)co3)cc12 [Cpd 43, 5-[3-(1,3,5-trimethylpyrazol-4-yl)pyrazolo[1,5-a]pyridin-5-yl]furan-3-carboxamide] | 0.01 to 10 | 1000 to 5000 | 0.01 to 10 |
| Cc1nn(CC(F)(F)F)c(C)c1-c1cnn2ccc(-n3cc(C(=O)O)cn3)cc12 [Cpd 62, 1-[3-[3,5-dimethyl-1-(2,2,2-trifluoroethyl)pyrazol-4-yl]pyrazolo[1,5-a]pyridin-5-yl]pyrazole-4-carboxylic acid] | 0.01 to 10 | > 5000 |  |
| Cc1c(-c2cnn3ccc(-n4cc(C(=O)O)cn4)cc23)c(C(F)(F)F)nn1C(C)C [Cpd 76, 1-[3-[1-isopropyl-5-methyl-3-(trifluoromethyl)pyrazol-4-yl]pyrazolo[1,5-a]pyridin-5-yl]pyrazole-4-carboxylic acid] | 0.01 to 10 | 1000 to 5000 |  |
| COc1nn(-c2ccn3ncc(-c4c(C(F)(F)F)nn(C)c4C)c3c2)cc1C(=O)O [Cpd 78, 1-[3-[1,5-dimethyl-3-(trifluoromethyl)pyrazol-4-yl]pyrazolo[1,5-a]pyridin-5-yl]-3-methoxy-pyrazole-4-carboxylic acid] | 0.01 to 10 | 1000 to 5000 |  |
| COc1nn(-c2ccn3ncc(-c4c(C)nn(CC(F)(F)F)c4C)c3c2)cc1C(=O)O [Cpd 68, 1-[3-[3,5-dimethyl-1-(2,2,2-trifluoroethyl)pyrazol-4-yl]pyrazolo[1,5-a]pyridin-5-yl]-3-methoxy-pyrazole-4-carboxylic acid] | 0.01 to 10 | > 5000 |  |
| CCn1nc(C)c(-c2cnn3ccc(-c4nc(OC)c(C(=O)O)s4)cc23)c1C [Cpd 84, 2-[3-(1-ethyl-3,5-dimethyl-pyrazol-4-yl)pyrazolo[1,5-a]pyridin-5-yl]-4-methoxy-thiazole-5-carboxylic acid] | 0.01 to 10 | 1000 to 5000 |  |
